Results on 19 compounds are retold here after patent US10239869B2, “Sulfonamide compounds as voltage-gated sodium channel modulators” (LUPIN LIMITED, priority 2015, dated 2019).

Like-named read-outs stand apart in the source and are kept apart here.

One series concerns the target Nav 1.5 (Homo sapiens (Human), UniProt Q14524). Nature of the series: Inhibition of sodium channels, Red Membrane Potential Dye FLIPR assay, veratridine depolarization. Format: cell-based. The note with it: HEK-293 cells overexpressing the channel; for inhibition at 10 µM: HEK-293 cells overexpressing Nav 1.5.
A further series concerns the target Nav 1.7 (Homo sapiens (Human), UniProt Q15858). Described as above. The class given is cell-based. As to conditions: HEK-293 cells overexpressing the channel; for IC50: read-out: Nav1.7 IC50.
Setting [1] is: read-out: Nav1.5 IC50 (bound given in μM).

Sequence of Nav 1.7 (Q15858 whole entry): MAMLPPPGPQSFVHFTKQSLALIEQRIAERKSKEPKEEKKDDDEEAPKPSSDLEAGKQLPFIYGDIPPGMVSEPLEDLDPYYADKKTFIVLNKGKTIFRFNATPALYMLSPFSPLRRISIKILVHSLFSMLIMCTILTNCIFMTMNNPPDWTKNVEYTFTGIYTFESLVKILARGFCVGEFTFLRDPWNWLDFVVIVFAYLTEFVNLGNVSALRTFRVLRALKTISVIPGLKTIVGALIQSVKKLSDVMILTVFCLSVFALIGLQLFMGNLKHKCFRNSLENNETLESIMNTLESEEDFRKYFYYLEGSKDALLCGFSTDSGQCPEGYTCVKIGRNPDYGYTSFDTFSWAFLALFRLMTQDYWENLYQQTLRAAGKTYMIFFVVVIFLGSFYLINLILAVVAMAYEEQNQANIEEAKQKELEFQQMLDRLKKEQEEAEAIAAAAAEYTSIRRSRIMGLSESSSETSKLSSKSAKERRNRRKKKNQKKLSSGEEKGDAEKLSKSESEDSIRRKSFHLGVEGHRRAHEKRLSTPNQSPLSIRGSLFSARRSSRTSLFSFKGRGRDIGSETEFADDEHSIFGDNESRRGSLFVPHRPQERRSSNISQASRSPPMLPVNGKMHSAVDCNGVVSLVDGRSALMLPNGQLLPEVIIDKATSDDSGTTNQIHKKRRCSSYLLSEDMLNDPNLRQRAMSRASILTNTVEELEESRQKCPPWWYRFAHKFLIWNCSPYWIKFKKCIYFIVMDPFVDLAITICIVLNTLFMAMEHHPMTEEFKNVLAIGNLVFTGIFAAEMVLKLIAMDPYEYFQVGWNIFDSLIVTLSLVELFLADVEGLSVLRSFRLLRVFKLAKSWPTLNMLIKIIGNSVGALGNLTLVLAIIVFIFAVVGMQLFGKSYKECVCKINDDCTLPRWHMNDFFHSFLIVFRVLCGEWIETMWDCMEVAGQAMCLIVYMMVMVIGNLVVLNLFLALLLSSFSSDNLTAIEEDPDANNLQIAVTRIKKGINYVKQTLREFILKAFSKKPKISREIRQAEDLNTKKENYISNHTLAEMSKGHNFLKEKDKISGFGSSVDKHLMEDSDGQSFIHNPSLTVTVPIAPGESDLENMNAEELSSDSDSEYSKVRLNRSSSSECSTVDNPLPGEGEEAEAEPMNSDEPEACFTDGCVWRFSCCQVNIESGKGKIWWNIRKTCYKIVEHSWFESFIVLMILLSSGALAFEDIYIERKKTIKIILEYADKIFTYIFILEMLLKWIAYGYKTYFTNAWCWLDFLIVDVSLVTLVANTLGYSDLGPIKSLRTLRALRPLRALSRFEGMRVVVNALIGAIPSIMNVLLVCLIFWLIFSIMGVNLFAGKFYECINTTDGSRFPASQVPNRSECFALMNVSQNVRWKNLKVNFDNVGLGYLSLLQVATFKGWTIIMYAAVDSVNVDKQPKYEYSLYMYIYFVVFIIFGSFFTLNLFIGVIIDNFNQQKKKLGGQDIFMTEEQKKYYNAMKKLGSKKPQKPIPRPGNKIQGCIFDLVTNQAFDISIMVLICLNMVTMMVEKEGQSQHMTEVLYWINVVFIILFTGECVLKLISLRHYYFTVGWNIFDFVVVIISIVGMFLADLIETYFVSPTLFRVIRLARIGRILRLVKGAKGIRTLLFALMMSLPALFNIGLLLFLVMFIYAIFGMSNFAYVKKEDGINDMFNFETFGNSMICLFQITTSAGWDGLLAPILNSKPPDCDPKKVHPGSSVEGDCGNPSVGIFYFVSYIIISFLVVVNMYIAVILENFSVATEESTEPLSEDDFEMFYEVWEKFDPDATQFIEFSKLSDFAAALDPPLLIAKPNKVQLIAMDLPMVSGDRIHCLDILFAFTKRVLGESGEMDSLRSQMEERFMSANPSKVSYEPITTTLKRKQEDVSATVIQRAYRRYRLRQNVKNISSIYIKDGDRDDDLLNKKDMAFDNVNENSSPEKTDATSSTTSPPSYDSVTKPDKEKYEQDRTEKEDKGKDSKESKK
Sequence of Nav 1.5 (Q14524 whole entry): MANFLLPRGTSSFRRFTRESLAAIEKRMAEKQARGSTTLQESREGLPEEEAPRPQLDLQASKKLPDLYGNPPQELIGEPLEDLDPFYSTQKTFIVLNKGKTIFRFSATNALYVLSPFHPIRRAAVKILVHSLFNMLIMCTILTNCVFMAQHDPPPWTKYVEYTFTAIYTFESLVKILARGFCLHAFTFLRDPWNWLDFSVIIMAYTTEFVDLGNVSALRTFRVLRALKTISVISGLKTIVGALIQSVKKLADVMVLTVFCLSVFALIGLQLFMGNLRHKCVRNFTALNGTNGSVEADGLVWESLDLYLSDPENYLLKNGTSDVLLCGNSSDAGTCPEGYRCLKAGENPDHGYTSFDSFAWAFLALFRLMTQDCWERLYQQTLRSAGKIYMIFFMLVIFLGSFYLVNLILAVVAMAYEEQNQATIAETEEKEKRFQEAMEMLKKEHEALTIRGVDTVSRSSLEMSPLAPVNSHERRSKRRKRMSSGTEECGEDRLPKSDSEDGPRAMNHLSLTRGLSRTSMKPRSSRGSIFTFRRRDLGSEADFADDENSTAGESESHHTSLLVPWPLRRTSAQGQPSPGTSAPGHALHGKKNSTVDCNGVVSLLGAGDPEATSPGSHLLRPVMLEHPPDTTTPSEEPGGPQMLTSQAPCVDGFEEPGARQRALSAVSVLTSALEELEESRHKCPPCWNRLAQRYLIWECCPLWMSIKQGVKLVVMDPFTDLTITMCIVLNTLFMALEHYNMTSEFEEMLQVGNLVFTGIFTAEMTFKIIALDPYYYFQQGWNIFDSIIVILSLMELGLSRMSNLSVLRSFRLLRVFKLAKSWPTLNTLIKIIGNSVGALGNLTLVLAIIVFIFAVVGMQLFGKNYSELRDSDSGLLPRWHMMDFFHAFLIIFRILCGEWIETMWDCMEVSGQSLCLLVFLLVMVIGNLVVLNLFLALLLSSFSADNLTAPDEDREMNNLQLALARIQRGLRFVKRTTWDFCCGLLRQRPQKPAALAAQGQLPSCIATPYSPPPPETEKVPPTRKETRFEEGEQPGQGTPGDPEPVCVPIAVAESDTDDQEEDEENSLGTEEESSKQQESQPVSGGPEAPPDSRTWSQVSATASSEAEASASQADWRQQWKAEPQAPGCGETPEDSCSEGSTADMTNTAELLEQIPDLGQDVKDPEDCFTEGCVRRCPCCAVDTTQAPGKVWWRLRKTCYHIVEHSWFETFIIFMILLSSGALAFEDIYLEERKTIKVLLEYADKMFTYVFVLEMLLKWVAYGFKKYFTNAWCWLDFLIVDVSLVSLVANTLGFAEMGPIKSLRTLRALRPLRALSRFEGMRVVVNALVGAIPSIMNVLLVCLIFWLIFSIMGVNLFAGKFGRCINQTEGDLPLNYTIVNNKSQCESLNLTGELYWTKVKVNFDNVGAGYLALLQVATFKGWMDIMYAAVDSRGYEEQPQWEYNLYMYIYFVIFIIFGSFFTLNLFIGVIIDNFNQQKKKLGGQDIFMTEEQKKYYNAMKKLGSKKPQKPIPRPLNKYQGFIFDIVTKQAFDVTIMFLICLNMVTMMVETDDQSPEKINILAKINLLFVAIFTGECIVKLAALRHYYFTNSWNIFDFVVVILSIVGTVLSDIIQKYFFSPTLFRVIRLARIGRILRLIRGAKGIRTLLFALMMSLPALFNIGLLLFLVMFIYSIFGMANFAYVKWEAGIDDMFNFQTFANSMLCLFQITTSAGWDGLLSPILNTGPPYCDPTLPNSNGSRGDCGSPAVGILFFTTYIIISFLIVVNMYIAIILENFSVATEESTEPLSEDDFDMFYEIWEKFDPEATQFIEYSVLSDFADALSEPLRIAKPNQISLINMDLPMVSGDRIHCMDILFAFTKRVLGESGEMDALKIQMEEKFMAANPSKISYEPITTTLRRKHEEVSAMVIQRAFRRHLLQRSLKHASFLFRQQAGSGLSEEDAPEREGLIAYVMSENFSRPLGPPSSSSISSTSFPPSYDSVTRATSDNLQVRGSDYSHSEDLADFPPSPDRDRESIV

In the case of `O=C1OCCN1c1cc(C(F)(F)F)ccc1[C@H]1CCOc2cc(S(=O)(=O)Nc3ncccn3)ccc21` (racemic) [Example-207, (R/S)-4-(2-(2-oxooxazolidin-3-yl)-4-(trifluoromethyl)phenyl)-N-(pyrimidin-2-yl)chroman-7-sulfonamide], the IC50 (as a rule, the concentration needed to halve the response being measured) at Nav 1.5 (setting [1]) is > 10 µM; at Nav 1.7 it was 49 nM.

As to `O=C1OCCN1c1cc(C(F)(F)F)ccc1[C@H]1CCOc2cc(S(=O)(=O)Nc3ncc(F)cn3)ccc21` (racemic) [Example-208, (R/S)—N-(5-fluoropyrimidin-2-yl)-4-(2-(2-oxooxazolidin-3-yl)-4-(trifluoromethyl)phenyl)chroman-7-sulfonamide], the concentration for half-maximal inhibition (IC50) was > 10 µM on Nav 1.5 (setting [1]) and 46 nM on Nav 1.7.

Regarding `O=C1OCCN1c1cc(C(F)(F)F)ccc1[C@H]1CCOc2cc(S(=O)(=O)Nc3cccnn3)ccc21` (racemic) [Example-209, (R/S)-4-(2-(2-oxooxazolidin-3-yl)-4-(trifluoromethyl)phenyl)-N-(pyridazin-3-yl)chroman-7-sulfonamide], the inhibition – broadly, the change of the read-out against control, counted positive when it falls – at 10 µM against Nav 1.5 was 28%. Moreover, the IC50 on Nav 1.7 turned out to be 47 nM.

`O=C1OCCN1c1cc(C(F)(F)F)ccc1[C@H]1CCOc2cc(S(=O)(=O)Nc3cccc(F)n3)ccc21` (racemic) [Example-210, (R/S)—N-(6-fluoropyridin-2-yl)-4-(2-(2-oxooxazolidin-3-yl)-4-(trifluoromethyl)phenyl)chromane-7-sulfonamide]: the values for the IC50 at Nav 1.5 (setting [1]) and on Nav 1.7 were > 10 µM and 48 nM, respectively.

Regarding `O=S(=O)(Nc1ncccn1)c1ccc2c(c1)OCC[C@@H]2c1ccc(C(F)(F)F)cc1CCC(F)F` (racemic) [Example-211, (R/S)-4-(2-(3,3-difluoropropyl)-4-(trifluoromethyl)phenyl)-N-(pyrimidin-2-yl)chroman-7-sulfonamide], the 50% inhibitory concentration (IC50) at Nav 1.5 (read-out: Nav1.5 IC50) amounted to 0.777 µM; at Nav 1.7, 7 nM.

With `O=S(=O)(Nc1ncc(F)cn1)c1ccc2c(c1)OCC[C@@H]2c1ccc(C(F)(F)F)cc1CCC(F)F` (racemic) [Example-212, (R/S)-4-(2-(3,3-difluoropropyl)-4-(trifluoromethyl)phenyl)-N-(5-fluoropyrimidin-2-yl)chroman-7-sulfonamide], the IC50 at Nav 1.5 (setting [1]) is > 10 µM; on Nav 1.7 it was 18 nM.

The compound `O=S(=O)(Nc1ccncn1)c1ccc2c(c1)OCC[C@@H]2c1ccc(C(F)(F)F)cc1CCC(F)F` (racemic) [Example-213, (R/S)-4-(2-(3,3-difluoropropyl)-4-(trifluoromethyl)phenyl)-N-(pyrimidin-4-yl)chroman-7-sulfonamide] gave an inhibition at 10 µM against Nav 1.5 of 65%. The IC50 on Nav 1.7 was determined as 34 nM.

Regarding `O=S(=O)(Nc1cccnn1)c1ccc2c(c1)OCC[C@@H]2c1ccc(C(F)(F)F)cc1CCC(F)F` (racemic) [Example-214, (R/S)-4-(2-(3,3-difluoropropyl)-4-(trifluoromethyl)phenyl)-N-(pyridazin-3-yl)chroman-7-sulfonamide], the results for the IC50 at Nav 1.5 (read-out: Nav1.5 IC50) and on Nav 1.7 were 0.635 µM and 2 nM, respectively.

With `O=S(=O)(Nc1cccc(F)n1)c1ccc2c(c1)OCC[C@@H]2c1ccc(C(F)(F)F)cc1CCC(F)F` (racemic) [Example-215, (R/S)-4-(2-(3,3-difluoropropyl)-4-(trifluoromethyl)phenyl)-N-(6-fluoropyridin-2-yl)chromane-7-sulfonamide], the figures for the IC50 at Nav 1.5 (read-out: Nav1.5 IC50) and on Nav 1.7 were 1.35 µM and 38 nM, respectively.

In the case of `O=S(=O)(Nc1ncc(F)cn1)c1ccc2c(c1)OCC[C@@H]2c1ccc(C(F)(F)F)cc1OC1COC1` (racemic) [Example-218, (S/R)—N-(5-fluoropyrimidin-2-yl)-4-(2-(oxetan-3-yloxy)-4-(trifluoromethyl)phenyl)chroman-7-sulfonamide], the IC50 at Nav 1.5 (setting [1]) is > 10 µM; on Nav 1.7, 43 nM.

`O=S(=O)(Nc1cccc(F)n1)c1ccc2c(c1)OCC[C@@H]2c1ccc(C(F)(F)F)cc1OC1COC1` (racemic) [Example-219, (S/R)—N-(6-fluoropyridin-2-yl)-4-(2-(oxetan-3-yloxy)-4-(trifluoromethyl)phenyl)chromane-7-sulfonamide]: the inhibition at 10 µM at Nav 1.5 was determined as 40%. Also, on Nav 1.7, the IC50 came to 34 nM.

With `Cc1nc(-c2cc(C(F)(F)F)ccc2[C@H]2CCOc3cc(S(=O)(=O)Nc4ncccn4)ccc32)ccc1F` (racemic) [Example-222, (R/S)-4-(2-(5-fluoro-6-methylpyridin-2-yl)-4-(trifluoromethyl)phenyl)-N-(pyrimidin-2-yl)chroman-7-sulfonamide], at Nav 1.5, the inhibition at 10 µM came to 73%. At Nav 1.7, the IC50 came out at 63 nM.

Compound `Cc1nc(-c2cc(C(F)(F)F)ccc2[C@H]2CCOc3cc(S(=O)(=O)Nc4ncc(F)cn4)ccc32)ccc1F` (racemic) [Example-223, (R/S)-4-(2-(5-fluoro-6-methylpyridin-2-yl)-4-(trifluoromethyl)phenyl)-N-(5-fluoropyrimidin-2-yl)chroman-7-sulfonamide] registered an inhibition at 10 µM against Nav 1.5 of 33%. Also, the IC50 at Nav 1.7 came to 82 nM.

Consider `Cc1nc(-c2cc(C(F)(F)F)ccc2[C@H]2CCOc3cc(S(=O)(=O)Nc4cccnn4)ccc32)ccc1F` (racemic) [Example-224, (R/S)-4-(2-(5-fluoro-6-methylpyridin-2-yl)-4-(trifluoromethyl)phenyl)-N-(pyridazin-3-yl)chroman-7-sulfonamide], for which the IC50 on Nav 1.5 (read-out: Nav1.5 IC50) is 2.12 µM; at Nav 1.7 it was 51 nM.

Regarding `Cc1nc(-c2cc(C(F)(F)F)ccc2[C@H]2CCOc3cc(S(=O)(=O)Nc4cccc(F)n4)ccc32)ccc1F` (racemic) [Example-225, (R/S)-4-(2-(5-fluoro-6-methylpyridin-2-yl)-4-(trifluoromethyl)phenyl)-N-(6-fluoropyridin-2-yl)chroman-7-sulfonamide], the IC50 was 1.5 µM at Nav 1.5 (read-out: Nav1.5 IC50) and 12 nM at Nav 1.7.

In the case of `O=S1(=O)CCN(c2cc(C(F)(F)F)ccc2[C@H]2CCOc3cc(S(=O)(=O)Nc4cccnn4)ccc32)CC1` (racemic) [Example-236, (R/S)-4-(2-(1,1-dioxidothiomorpholino)-4-(trifluoromethyl)phenyl)-N-(pyridazin-3-yl)chroman-7-sulfonamide], the IC50 at Nav 1.5 (setting [1]) was > 10 µM; at Nav 1.7 it was 113 nM.

As to `Cc1ccc(-c2cc(C(F)(F)F)ccc2[C@H]2CCOc3cc(S(=O)(=O)Nc4cccnn4)ccc32)cn1` (stereo in doubt) [Example-205, (R/S)-4-(2-(6-methylpyridin-3-yl)-4-(trifluoromethyl)phenyl)-N-(pyridazin-3-yl)chroman-7-sulfonamide], the IC50 came to 0.25 µM on Nav 1.5 (read-out: Nav1.5 IC50) and 8 nM on Nav 1.7.

In the case of `Cn1nccc1-c1cc(C(F)(F)F)ccc1[C@@H]1CCOc2cc(S(=O)(=O)Nc3cnccn3)ccc21` [Example 11, (S&R)-4-(2-(1-Methyl-1H-pyrazol-5-yl)-4-(trifluoromethyl)phenyl)-N-(pyrazin-2-yl) chromane-7-sulfonamide], at Nav 1.5 (setting [1]), the IC50 was > 10 µM. Further, at Nav 1.7, the “Nav1.7 inhibition @ 10 μM” value turned out to be 96%.

In the case of `Cn1nccc1-c1cc(C(F)(F)F)ccc1[C@@H]1CCOc2cc(S(=O)(=O)Nc3ncccc3F)ccc21` [Example 17, (S&R)—N-(3-Fluoropyridin-2-yl)-4-(2-(1-methyl-1H-pyrazol-5-yl)-4-(trifluoromethyl)phenyl)chromane-7-sulfonamide], the IC50 at Nav 1.5 (setting [1]) is > 10 µM. Also, the “Nav1.7 inhibition @ 10 μM” value at Nav 1.7 is reported as 96%.
